{
  "source": "paper PMC5786495",
  "about": "(Cell, 2017)",
  "system": "NKI2 TCR-transduced peripheral blood lymphocytes",
  "assay": "IFNγ production by NKI2-transduced lymphocytes with peptide-loaded JY cells",
  "type": "cell-based, human",
  "conditions": "NKI2 transduced T cells",
  "data": [
    {"sequence": "ALDSRSEHFM", "values": [
      {"measurement": "potency of stimulation relative to CDK4 neoantigen ALDPHSGHFV", "result": "as potently as the CDK4 neoantigen"}
    ]}
  ]
}
